We go through 13 compounds from ChEMBL document CHEMBL1201862, “PubChem BioAssay data set” (2004).

Common to all, as to assay: NCI anticancer screen, dose series, 48 h
The subject of assay [1] is CCRF-CEM.
The subject of assay [2] is DU-145.
Assay [3] deals with EKVX.
Assay [4] concerns HCT-116.
The subject of assay [5] is HT-29.
Assay [6] concerns IGROV-1.
Assay [7] relates to LOX IMVI.
Assay [8] deals with MCF7.
Assay [9] has as its system MDA-MB-231.
Assay [10] has as its system MDA-N.
Assay [11] has as its system NCI-H23.
For assay [12], the system named is OVCAR-4.
The subject of assay [13] is OVCAR-5.
For assay [14], the system named is OVCAR-8.
Assay [15] deals with SK-MEL-5.
The subject of assay [16] is SNB-19.
The subject of assay [17] is SR.
Assay [18] relates to T47D.
Assay [19] deals with U-251.
Assay [20] has as its system M19-MEL.

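Test compounds were applied to cells in 96-well plates for 48 hours at 5 doses. Here, GI50 denotes the concentration required for 50% inhibition of growth.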 The source made the active and inactive calls. Cut-off read from the data, not from the text of the source: active = GI50 up to about 1.1 µM and inactive = higher. Some results are limits rather than exact numbers.

In the case of `CCCCCCCCCc1c(Cl)nc(Cl)nc1Cl`, the GI50 in [1] was 2.17 µM (inactive); in assay [2], 17.3 µM (inactive); in [3] it was 22.7 µM (inactive); in [4], 14.5 µM (inactive); in [5], 17.5 µM (inactive); in assay [6], 13.2 µM (inactive). Also, the GI50 is 1.95 µM (inactive) in assay [7]; 18.4 µM (inactive) in [8]; 12.3 µM (inactive) in [9]; 14.7 µM (inactive) in assay [10]; 9.62 µM (inactive) in [11]; 15 µM (inactive) in [12]. Moreover, the GI50 was 21 µM (inactive) in [13]; 16.1 µM (inactive) in [14]; 11.7 µM (inactive) in assay [15]; 16.2 µM (inactive) in assay [16]; 2.84 µM (inactive) in assay [17]; 10.1 µM (inactive) in assay [18]. Moreover, the GI50 in assay [19] was 18.9 µM (inactive).

For `O=C(CC(=O)N1N=C(N2c3ccccc3Sc3ccccc32)CC1c1ccccc1)Nc1ccc(Cl)cc1` (centres undefined), the GI50 in assay [1] is > 10 µM (inactive); in assay [3] it was > 100 µM (inactive); in assay [4] it was > 100 µM (inactive); in [5], > 100 µM (inactive); in assay [6], > 100 µM (inactive); in [7], > 100 µM (inactive). The GI50 in assay [20], in assay [11], in assay [12], in assay [13], in assay [14] and in assay [15] was > 100 µM (inactive) in each case. Further, the GI50 in assay [16] and in assay [19] was > 100 µM (inactive) throughout.

As to `O=C1c2ccccc2C2(Br)C(=O)c3ccccc3C12` (centres undefined), the GI50 is 42.4 µM (inactive) in assay [1]; > 100 µM (inactive) in assay [3]; > 100 µM (inactive) in assay [5]; > 100 µM (inactive) in [6]; 11.1 µM (inactive) in assay [7]; > 100 µM (inactive) in assay [20]. For the same compound, the GI50 in [11], in assay [12], in assay [13], in [14], in assay [15] and in assay [19] was > 100 µM (inactive) each time.

In the case of `COc1cc(C(=O)C/C(CCC(=O)Nc2ccccc2[N+](=O)[O-])=N\NC(=O)CC#N)ccc1O`, the GI50 in assay [1], in [3], in [5], in assay [6], in [7] and in assay [20] was > 100 µM (inactive) each time. The GI50 in assay [11], in [12], in [13], in assay [14], in assay [15] and in assay [16] was > 100 µM (inactive) each time.

As to `CCOc1cc(/C=N/c2ccc(Oc3ccc(Cl)cc3)c(Cl)c2)ccc1O`, the GI50 in [1] is 16.1 µM (inactive); in [2] it was 50.5 µM (inactive); in assay [3], 18.5 µM (inactive); in [4], 17.9 µM (inactive); in assay [5] it was 20.8 µM (inactive); in [6], 19.1 µM (inactive). The GI50 in assay [7] is 19.8 µM (inactive); in assay [8], 31.9 µM (inactive); in assay [9], 19.6 µM (inactive); in [10], 25 µM (inactive); in assay [11] it was 22.7 µM (inactive); in assay [12] it was 34 µM (inactive). The GI50 in assay [13] is 28.1 µM (inactive); in assay [14], 23 µM (inactive); in assay [15], 22.3 µM (inactive); in assay [16], 25.2 µM (inactive); in assay [17], 33.2 µM (inactive); in assay [18], 36.3 µM (inactive). Moreover, the GI50 in assay [19] was 21.7 µM (inactive).

Consider `C[N+]1(C)C/C(=C\c2ccccc2)C(=O)/C(=C/c2ccccc2)C1`, for which the GI50 is 49 µM (inactive) in assay [1]; < 0.01 µM (active) in [3]; > 100 µM (inactive) in [4]; > 100 µM (inactive) in [5]; > 100 µM (inactive) in assay [6]; 32.7 µM (inactive) in assay [20]. Also, the GI50 in assay [11] is > 100 µM (inactive); in assay [12], > 100 µM (inactive); in [13], > 100 µM (inactive); in assay [14], > 100 µM (inactive); in assay [15], 72.8 µM (inactive); in assay [17], 63 µM (inactive). Also, the GI50 in [19] is 31.4 µM (inactive).

For the compound `O=C(O)c1oc2ccc([N+](=O)[O-])c3c2c1CCC3`, the GI50 in assay [3], in assay [4], in [5], in assay [7], in assay [20] and in assay [11] was > 100 µM (inactive) each time. In addition, the GI50 in assay [12], in assay [13], in [14], in assay [16] and in [19] was > 100 µM (inactive) each time.

Regarding `C1CCN2CC34CC(CC5CCCN(C6CCCC3N6)C54)C2C1` (centres undefined), the GI50 in assay [1], in [2], in assay [3], in assay [4], in assay [5] and in assay [6] was > 100 µM (inactive) in each case. Moreover, the GI50 in assay [7], in assay [8], in assay [9], in assay [10], in [11] and in assay [12] was > 100 µM (inactive) throughout. The GI50 in assay [13], in [14], in assay [15], in assay [16], in assay [17] and in assay [18] was > 100 µM (inactive) each time. For the same compound, the GI50 in [19] was > 100 µM (inactive).

`COC(=O)C1(C(C)C)CCc2c(OC)ccc(OC)c2C1=O` (centres undefined): the GI50 in assay [1] was > 100 µM (inactive); in assay [3], 75.2 µM (inactive); in [4], > 100 µM (inactive); in [5] it was > 100 µM (inactive); in assay [6] it was > 100 µM (inactive); in [7], > 100 µM (inactive). For the same compound, the GI50 is > 100 µM (inactive) in assay [20]; 96.6 µM (inactive) in assay [12]; > 100 µM (inactive) in assay [13]; > 100 µM (inactive) in assay [14]; > 100 µM (inactive) in assay [15]; > 100 µM (inactive) in assay [16]. In addition, in assay [19], the GI50 was > 100 µM (inactive).

Consider `CN(C)CCNC(=O)c1cccc2nc3ccc4ccccc4c3nc12`, for which the GI50 in assay [1] was 0.0673 µM (active); in assay [3], 0.126 µM (active); in assay [4] it was 0.0247 µM (active); in assay [5], 0.0499 µM (active); in [6], 0.0817 µM (active); in assay [7], 0.0726 µM (active). Also, the GI50 was 0.0946 µM (active) in [20]; 0.0942 µM (active) in assay [11]; 0.114 µM (active) in assay [12]; 0.21 µM (active) in [13]; 0.0574 µM (active) in assay [14]; 0.105 µM (active) in assay [15]. Further, the GI50 in [16] is 0.132 µM (active); in [19], 0.112 µM (active).

`CSC1(C)CC2C(CC1N1CCCCC1)C2(C)C` (centres undefined): the GI50 in assay [1], in assay [4], in assay [5], in [6], in assay [20] and in assay [11] was > 100 µM (inactive) in each case. Besides, the GI50 in assay [12], in assay [13], in [14] and in assay [19] was > 100 µM (inactive) in each case.

Regarding `CSc1ccc2c(cc1=O)C(NC(=O)c1cc(O)c(OC(=O)O)c(O)c1)CCc1cc(O)c(O)c(O)c1-2` (centres undefined), the GI50 is 11.9 µM (inactive) in assay [1]; 20 µM (inactive) in assay [3]; 16.5 µM (inactive) in assay [4]; 20 µM (inactive) in assay [5]; 19.7 µM (inactive) in [6]; 12.9 µM (inactive) in assay [7]. Also, the GI50 is 13.6 µM (inactive) in assay [20]; 19.2 µM (inactive) in assay [11]; 20.2 µM (inactive) in assay [12]; > 8.99 µM (inactive) in assay [13]; 28.9 µM (inactive) in assay [14]; 15.7 µM (inactive) in assay [15]. The GI50 was 50.9 µM (inactive) in assay [16] and 16 µM (inactive) in assay [19].

For the compound `COc1ccc(C(=O)/C=C/c2ccc(Oc3cc(C(=O)/C=C/c4ccc(O)cc4)c(O)cc3OC)cc2)c(O)c1` [RHUSCHALCONE I], the GI50 was 2.27 µM (inactive) in assay [1]; 5.96 µM (inactive) in assay [2]; 4.01 µM (inactive) in [3]; 1.87 µM (inactive) in [4]; 2.23 µM (inactive) in [5]; 2.59 µM (inactive) in assay [6]. The GI50 in assay [7] was 2.27 µM (inactive); in assay [8], 4.41 µM (inactive); in assay [9] it was 3.63 µM (inactive); in [10] it was 3.48 µM (inactive); in assay [11], 2.72 µM (inactive); in assay [12] it was 3.23 µM (inactive). For the same compound, the GI50 is 4.19 µM (inactive) in assay [13]; 3.45 µM (inactive) in assay [14]; 4.02 µM (inactive) in [15]; 8.3 µM (inactive) in [16]; 1.92 µM (inactive) in assay [17]; 4.99 µM (inactive) in assay [18]. For the same compound, the GI50 in assay [19] was 3.79 µM (inactive).
